The values that follow come from US9839634B2 (priority 2012, dated 2017).

Structures are written as SMILES. Where two headings read alike, the source gives them in different places.

Assay [1] concerns Staphylococcus aureus ATCC12600. It counts as cell-based. Here is the method:
Spontaneous resistance frequencies in Staphylococcus aureus were determined by plating defined numbers of cells of Staphylococcus aureus ATCC12600 (1×10^8-1×10^12 cfu/plate) on Mueller-Hinton agar containing rifampin, myxopyronin B, or both, and counting numbers of colonies after 14 h at 37° C. Experiments were performed using (a) rifampin at 1×, 2×, or 4× the minimum inhibitory concentration of rifampin administered individually; (b) myxopyronin B at lx, 2×, or 4× the minimum inhibitory concentration of myxopyronin B administered individually; or (c) both rifampin at 1×, 2×, or 4× the minimum inhibitory concentration of rifampin administered individually and myxopyronin B at 1×, 2×, or 4× the minimum inhibitory concentration of myxopyronin B administered individually. All experiments were performed four times, using four different starting cultures.

The test system of assay [2] is Escherichia coli D21f2tolC. It counts as cell-based. To be noted: 2xMIC; for resistance rate per generation: MSS-MLE. Here is the method: Spontaneous resistance frequencies in Escherichia coli were determined by plating defined numbers of cells of Escherichia coli D21f2tolC (1×10^8-1×10^12 cfu/plate) on LB agar containing rifampin, myxopyronin B, or both, and counting numbers of colonies after 24 h at 37° C. Experiments were performed using (a) rifampin at 2× the minimum inhibitory concentration of rifampin administered individually; (b) myxopyronin B at 2× the minimum inhibitory concentration of myxopyronin B administered individually; or (c) both rifampin at 2× the minimum inhibitory concentration of rifampin administered individually and myxopyronin B at 2× the minimum inhibitory concentration of myxopyronin B administered individually. All experiments were performed at least five times, using at least five different starting cultures. Resistance rates and 95% confidence intervals were calculated using the Ma-Sandri-Sarkar Maximum Likelihood Estimator (MSS-MLE; [Ma, W, Sandri, GvH., Sarkar, S. (1992. ) J. Appl. Probab. 29, 255-267; Sarkar, S., Ma, W., Sandri, GvH. (1992) Genetica 85, 173-179]) as implemented on the Fluctuation Analysis Calculator (FALCOR; http://www.keshaysingh.org/protocols/FALCOR.html; [Hall, B., Ma, C., Liang, P., Singh, K (2009) Bioinformatics 25, 1564-1565]). Sampling correction was performed as in [Stewart, F., Gordon, D., Levin, B. (1990) Genetics 124, 175-185; Jones, M. (1993) Mutat. Res. 292, 187-189].

Regarding `CCc1c(Cl)c(O)c(Cl)c(O)c1C(=O)O[C@H]1[C@H](O)[C@H](OC)[C@H](OC/C2=C\C=C\C[C@H](O)/C(C)=C/[C@H](CC)[C@@H](O[C@@H]3OC(C)(C)[C@@H](OC(=O)C(C)C)[C@H](O)[C@@H]3O)/C(C)=C/C(C)=C/C[C@@H]([C@@H](C)O)OC2=O)O[C@@H]1C` [lipiarmycin A3], the spontaneous resistance frequency in assay [1] (2xMIC) is 3×10^−8.
Consider `CCCC/C(C)=C/C=C(\C)C(=O)c1c(O)cc([C@H](C)CC/C=C/NC(=O)OC)oc1=O` [myxopyronin B], for which the spontaneous resistance frequency in assay [1] (1xMIC) is reported as 4 × 10^−8; in assay [1] (2xMIC), 7 × 10^−8; in assay [1] (4xMIC), 7 × 10^−8; in assay [1] (mean of 1x, 2x, 4xMIC), 6×10^−8; in assay [2] it was 8×10^−10. Further, the “resistance rate per generation” value in assay [2] is on record as 3×10^−10 per generation.
As to `CO[C@H]1/C=C/O[C@@]2(C)Oc3c(C)c(O)c4c(O)c(c(/C=N/N5CCN(C)CC5)c(O)c4c3C2=O)NC(=O)/C(C)=C\C=C\[C@H](C)[C@H](O)[C@@H](C)[C@@H](O)[C@@H](C)[C@H](OC(C)=O)[C@@H]1C` [rifampin], the spontaneous resistance frequency is on record as 5 × 10^−8 in assay [1] (1xMIC); 6×10^−8 in assay [1] (2xMIC); 6 × 10^−8 in assay [1] (4xMIC); 6×10^−8 in assay [1] (mean of 1x, 2x, 4xMIC); 4×10^−9 in assay [2]. Further, the “resistance rate per generation” value in assay [2] is on record as 1×10^−9 per generation.
